Laboratory results reported in patent US20260076369A1, “USE OF MELATONIN AND/OR PRECURSOR THEREOF FOR DECREASING THE PLANT NITRATE CONTENT” (priority 2022, published 2026).
Marks after values point to notes of the source that are not given here.

Experiments:
[1] = system: Lettuce plants (Lactuca sativa L.); experiment: Nitrate concentration in lettuce leaves after foliar spray; assay type: in vivo; settings: for decrease of leaves nitrate content: 20 micromolar, vs control; for Nitrate concentration in lettuce leaves: 20 micromolar spray with Tween 20; for time the decrease of leaf nitrate content is maintained after the treatment: lettuce, 20 micromolar foliar spray
Method: Lettuce plants (Lactuca sativa L.), were cultivated in pots containing an alkaline soil and receiving mineral fertilization including ammonium nitrate (NAC 27) in a greenhouse under controlled conditions (16 h light/8 h dark and 25° C.). Once the commercial size of the plants was reached, the plants were divided in three groups. The Control group (CT) was sprayed with water and a surfactant (Tween 20); the melatonin (M) group was sprayed with a solution of 20 micromolar of synthetic melatonin and the adjuvant; and the tryptophan group (Tr) was sprayed with a solution of 20 micromolar of biosynthetic tryptophan and the adjuvant. The plants were harvested 48 h and […] after foliar application at 12 am. Nitrate concentration in the leaves was determined in leaf water extract by colorimetric detection at 415 nm after reaction of nitrate with salicylic acid in acidic medium and the formation of nitrosalicylate. Each treatment and harvest had five plants.

[2] = system: French Bean plants (Phaseolus vulgaris); experiment: Nitrate concentration in bean leaves after soil application; assay type: in vivo; settings: 20 micromolar total
Method: French Bean plants (Phaseolus vulgaris), were cultivated in pots containing a peat substrate and receiving mineral fertilization including 40 kg N/hectare by ammonium nitrate and 20 kg SO3/hectare by magnesium sulfate in a greenhouse under controlled conditions (16 h light/8 h dark and 25° C.). The fertilizers were brought to the surface of the pots after 10 days of culture.
Just after adding the fertilizers, the plants were divided in four groups. The experiment was arranged in a randomized complete block design with six replicates. The Control group (CT) was without any treatment; 3 groups were treated by addition of an aqueous solution of (1) synthetic melatonin (SM) (20 micromolar), (2) phytomelatonin (pM) (20 micromolar) from a Spirulina extract and (3) a combination of synthetic melatonin (10 micromolar), and phytomelatonin from a rich Spirulina extract (CM) (10 micromolar). Applications have been done in the soils 10 days after transplantation and one time every 7 days. Plants were harvested 6 weeks after transplanting and 2 weeks after the last treatment. Then leaves were dried and used for the determination of dry weight and nitrate content. Nitrate concentration in the leaves was determined by High Performance Ionic Chromatography. The results were expressed in mg NO3/g of dry matter.

[3] = harvest 48 h after foliar application, CT 1563
[4] = harvest 120 h after foliar application, CT 1452

| Structure (SMILES) | decrease of leaves nitrate content ([1]; 48 h after the treatment) [%] | decrease of leaves nitrate content ([1]; 120 h after the treatment) [%] | Nitrate concentration in lettuce leaves [1, 3] | Nitrate concentration in lettuce leaves [1, 4] | time the decrease of leaf nitrate content is maintained after the treatment [1] | decrease of nitrate content in bean leaves ([2]; 2 weeks after the last treatment, vs control) [%] | Nitrate content in bean leaves ([2]; applied to soil every 7 days, harvest 2 weeks after last treatment, CT 2.47) |
| --- | --- | --- | --- | --- | --- | --- | --- |
| COc1ccc2[nH]cc(CCNC(C)=O)c2c1 [Melatonin, N-acetyl-5-methoxy tryptamine] | 53 | 50 | 738* mg kg^−1 fresh weight | 706* mg kg^−1 fresh weight | at least 5 days | 79 | 0.52* mg/g of dry weight |
| N[C@@H](Cc1c[nH]c2ccccc12)C(=O)O [tryptophan] | 50 | 39 | 780* mg kg^−1 fresh weight | 887* mg kg^−1 fresh weight | at least 5 days |  |  |
